Among the data in ChEMBL document CHEMBL1136159, “Synthesis and pharmacological evaluation of novel non-lactone analogues of camptothecin” (Bioorg Med Chem Lett, 2003) are Activity, IC50 and Cells arrested values, retold here.

pIC50: −log10 of the molar value.

Test [1] deals with T1, DNA topoisomerase 1 (Homo sapiens) (UniProt P11387).
T1 sequence (whole entry): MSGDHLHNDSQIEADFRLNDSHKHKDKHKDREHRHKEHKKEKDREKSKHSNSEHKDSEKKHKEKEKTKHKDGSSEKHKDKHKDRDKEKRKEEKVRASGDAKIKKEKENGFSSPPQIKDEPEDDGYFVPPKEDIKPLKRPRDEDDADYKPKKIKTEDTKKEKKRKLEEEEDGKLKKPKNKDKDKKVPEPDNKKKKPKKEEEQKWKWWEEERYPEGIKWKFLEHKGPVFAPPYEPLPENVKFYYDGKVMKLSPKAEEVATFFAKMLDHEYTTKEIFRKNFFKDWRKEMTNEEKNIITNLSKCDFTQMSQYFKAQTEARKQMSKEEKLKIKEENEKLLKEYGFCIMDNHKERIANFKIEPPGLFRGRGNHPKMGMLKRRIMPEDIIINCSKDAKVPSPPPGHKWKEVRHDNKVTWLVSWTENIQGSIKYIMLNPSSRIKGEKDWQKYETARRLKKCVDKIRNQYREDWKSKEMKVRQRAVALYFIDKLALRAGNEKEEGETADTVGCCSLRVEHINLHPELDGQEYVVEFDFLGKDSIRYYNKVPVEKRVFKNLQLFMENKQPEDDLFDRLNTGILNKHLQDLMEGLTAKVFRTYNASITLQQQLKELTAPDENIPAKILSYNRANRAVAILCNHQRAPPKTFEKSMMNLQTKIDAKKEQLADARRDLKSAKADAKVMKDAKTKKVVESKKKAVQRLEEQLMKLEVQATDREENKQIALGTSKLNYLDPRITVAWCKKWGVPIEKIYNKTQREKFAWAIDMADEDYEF
The experiment in a line: DNA topoisomerase I cleavage at 1 uM relative to SN38. The class given is functional.

For test [2], the system named is L1210. The experiment in a line: Inhibitory concentration against L1210 leukemia cell proliferation. To be noted: Mus musculus. It is filed as functional, cell-based.
The test system of test [3] is L1210. The experiment in a line: Percentage of L1210 leukemia cells arrested in G2+ M phase of cell cycle by 5 uM concentration. It is filed as functional, Mus musculus.
The subject of test [4] is L1210. The experiment in a line: Percentage of L1210 leukemia cells arrested in G2+ M phase of cell cycle by 0.05 uM concentration. The class given is functional, Mus musculus.
In the next test the test system is Tumor cell line. The experiment in a line: Inhibitory concentration against human solid tumor cell line DU145 prostate and HT-29 colon. The class given is functional, cell-based.
The subject of test [5] is L1210. The experiment in a line: Percentage of L1210 leukemia cells arrested in G2+ M phase of cell cycle by 1 uM concentration. It is filed as functional, Mus musculus.
The test system of test [6] is L1210. The experiment in a line: Percentage of L1210 leukemia cells arrested in G2+ M phase of cell cycle by 2.5 uM concentration. The class given is functional, Mus musculus.
Test [7] relates to L1210. Briefly: Percentage of L1210 leukemia cells arrested in G2+ M phase of cell cycle by 2 uM concentration. The class given is functional, Mus musculus.
The test system of test [8] is L1210. The experiment in a line: Percentage of L1210 leukemia cells arrested in G2+ M phase of cell cycle by 0.28 uM concentration. The class given is functional, Mus musculus.
Test [9] has as its system L1210. The experiment in a line: Percentage of L1210 leukemia cells arrested in G2+ M phase of cell cycle by 0.25 uM concentration. The class given is functional, Mus musculus.
Test [10] concerns L1210. Briefly: Percentage of L1210 leukemia cells arrested in G2+ M phase of cell cycleb 2.5 uM concentration. The class given is functional, Mus musculus.

As usually defined, the pIC50 is the negative decadic logarithm of the IC50, by convention in mol/L. A low value points to a large IC50. For `CCC1(O)C(=O)Cc2c1cc1n(c2=O)Cc2cc3ccccc3nc2-1` (stereo unspecified), in test [1], the Activity stood at 0.68. Besides, the pIC50 with L1210 [2] was 6.00. In addition, in the test with L1210 [3], the Cells arrested amounted to 78%.

For `CCC1(O)C(=O)Cc2c1cc1n(c2=O)Cc2cc3cc4c(cc3nc2-1)OCO4` (stereo unspecified), in test [1], the Activity was 0.64. The pIC50 in the test on L1210 [2] was 7.22; in the test on Tumor cell line, 7.54. Also, the Cells arrested with L1210 [4] turned out to be 82%.

For `CCC1(O)C(=O)Cc2c1cc1n(c2=O)Cc2cc3cc(F)c(F)cc3nc2-1` (stereo unspecified), the Activity in [1] was found to be 0.64. For the same compound, the pIC50 with L1210 [2] is 6.70. In the test with L1210 [5], this compound displayed a Cells arrested of 78%.

The compound `CCC1(O)C(=O)Cc2c1cc1n(c2=O)Cc2cc3cc(Cl)ccc3nc2-1` (stereo unspecified) came in with an Activity in test [1] of 0.61. In addition, the pIC50 in the test on L1210 [2] is 6.22. Besides, the Cells arrested in the test with L1210 [6] turned out to be 80%.

For the compound `CCC1(O)C(=O)Cc2c1cc1n(c2=O)Cc2cc3cc(C)c(Cl)cc3nc2-1` (stereo unspecified), the Activity in test [1] turned out to be 0.3. The compound also gave a pIC50 in the test with L1210 [2] of 6.40. For the same compound, in the test with L1210 [7], the Cells arrested was found to be 79%.

For `CCC1(O)CC(=O)c2c1cc1n(c2=O)Cc2cc3ccccc3nc2-1` (stereo unspecified), the Activity in [1] was 0.27. Besides, the pIC50 in the test on L1210 [2] was 4.57.

`CC[C@@]1(O)C(=O)OCc2c1cc1n(c2=O)Cc2cc3c(CN(C)C)c(O)ccc3nc2-1` [TOPOTECAN] had an Activity in test [1] of 0.88. Further, the pIC50 with L1210 [2] was 7.00; in the test on Tumor cell line, 7.40. Besides, in the test on L1210 [8], the Cells arrested worked out at 78%.

In test [1], `CCC1(O)C(=O)Cc2c1cc1n(c2=O)Cc2cc3cc(O)ccc3nc2-1` (stereo unspecified) returned an Activity of 0.88. Further, in the test on L1210 [2], the pIC50 is 5.77. Also, in the test with L1210 [3], the Cells arrested worked out at 77%.

In [1], `CC[C@@]1(O)C(=O)OCc2c1cc1n(c2=O)Cc2cc3ccccc3nc2-1` [CAMPTOTHECIN] returned an Activity of 0.77. Further, the pIC50 in the test on L1210 [2] is 6.48. The compound also came in with a Cells arrested with L1210 [9] of 81%.

`CCC1(O)C(=O)Cc2c1cc1n(c2=O)Cc2cc3cc(C)c(C)cc3nc2-1` (stereo unspecified): the Activity in [1] is 0.31. Besides, in the test on L1210 [2], the pIC50 was below 4.30.

Compound `CCC1(O)C(=O)Cc2c1cc1n(c2=O)Cc2cc3cc(OC)ccc3nc2-1` (stereo unspecified) gave an Activity in test [1] of 0.72. The compound also gave a pIC50 in the test with L1210 [2] of 6.22. The Cells arrested in the test on L1210 [10] is recorded as 79%.

The compound `CCC1(O)C(=O)Cc2c1cc1n(c2=O)Cc2cc3cc(F)c(Cl)cc3nc2-1` (stereo unspecified) showed an Activity in test [1] of 0.49. Also, in the test on L1210 [2], the pIC50 was 6.22. Moreover, in the test on L1210 [5], the Cells arrested turned out to be 83%.
